In patent publication US11267802B2 (BEBETTER MED INC., priority 2015, dated 2022):

Experiments:
H1975 = assay: Inhibition assay on tumor cell proliferation (CellTiter-Glo), H1975; type: cell-based, Human; conditions: Homo sapiens, NCI-H1975; H1975 (L858R and T790M EGFR double mutation), 72 hours, 10% bovine serum
HCC827 = assay: Inhibition assay on tumor cell proliferation (CellTiter-Glo), HCC827; type: cell-based; conditions: Homo sapiens; HCC827 (ex19del), 72 hours, 10% bovine serum
Experimental: (§1) By using a CellTiter-Glo luminescence cell viability test kit (Promega, # G7572), the content of adenosine triphosphate (ATP) was determined to assess the cell viability.
(§2) Human colon cancer cell line LOVO and human non-small-cell lung cancer H358 express wild-type EGFR. Human non-small-cell lung cancer cell line HCC827 carries deletion mutation in exon 19 (ex19del). Those cell lines are purchased from Shanghai Fudan IBS Cell Resource Center and American Tissue Culture Collection (ATCC).
(§3) The assay procedure is as follows. The cells in a cell culture plate were digested with a pancreatic enzyme, re-suspended in a DPBS culture medium, and had the cell density counted by Scepter automated cytometer (Millipore # PHCC00000). The cells were diluted to a solution of 44,000 cells per ml. The cell solution with adjusted density was added to the cell assay plate at 90 microliters per well. The plate was placed in an incubator with 5% CO2 at 37° C. for 24 hours of incubation, and then added with different concentrations of subject compounds. The cells were incubated for 72 hours with the compounds in presence of 10% bovine serum. The content of ATP was determined by a CellTiter-Glo® Luminescent Cell Viability Assay kit (see the manufacturer's instruction for details) to evaluate cell-growth inhibition.
(§4) Briefly, 30 μl of CellTiter-Glo® reagent was added to each well, and then shaken for 10 minutes to induce cell lysis. The fluorescent signal was detected and recorded by Fluoroskan Ascent FL (Thermo). The max signal value was obtained from the cells treated by dimethyl sulfoxide for 72 hours. The min signal value was obtained from the medium alone (the number of the cells was 0). Inhibitory rate %=(max signal value−compound signal value)/(max signal value−min signal value)×100. The data was processed by GraphPad Prism V5.0 software (GraphPad Software, San Diego, Calif.). Sigmoidal dose-response curve fitting was performed to calculate the IC50 value.

LOVO = assay: Inhibition assay on tumor cell proliferation (CellTiter-Glo), LOVO; type: cell-based, Human; conditions: Homo sapiens; LOVO (wild-type EGFR), 72 hours, 10% bovine serum
Experimental: as §1, §2, §3, §4

H358 = assay: Inhibition assay on tumor cell proliferation (CellTiter-Glo), H358; type: cell-based, Human; conditions: Homo sapiens, NCI-H358; H358 (wild-type EGFR), 72 hours, 10% bovine serum
Method in brief: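 Viability from ATP content by CellTiter-Glo luminescence; inhibition normalised to DMSO (max) and medium-only (min) wells, IC50 by sigmoidal dose-response fitting. LOVO and H358 carry wild-type EGFR; HCC827 has exon 19 deletion.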

H1975 xenograft tumor [1] = assay: Potency assay of tumor model, dose-effect relationship, 22 consecutive days; type: in vivo, Balb/C nude mice; conditions: for Tumor inhibition T/C value (%) / Weight change (%): po, qd
Experimental: (§5) Balb/C nude mice were purchased from Beijing Vital River Laboratory Animal Technology Co., Ltd., and housed in SPF animal room. The human non-small-cell lung cancer cell line H1975 in a culture dish was collected by trypsin-EDTA (0.25% trypsin, 1 mM EDTA), and then washed with a serum-free PBS solution. Lastly, the cells were implanted after diluted in a serum-free medium. Only the single cell suspension with a survival rate over 90% (Trypan blue rejection) can be used for injection. 5 million cells suspended in a 0.1 ml serum-free culture were injected into the front right flanking subcutaneous region of each mouse by using a 1 ml syringe and a 25G syringe needle, and the blood vessel was carefully avoided. The tumor size was measured in about one week after implantation. A caliper rule was used to measure the tumor size. The tumor volume was calculated by the following formula: tumor volume=(length×width^2)/2.
Further assay was performed to assess the dose-effect relationship of the inhibition of H1975 transplantation tumor growth by the compounds 51 and 91. […] These compounds were dissolved in 30% sulfobutylated beta-cyclodextrin (SBE-β-CD) and 1N HCl (pH 3-4), respectively. […]

EGFR T790M/L858R = biological target: T1, EGFR T790M/L858R (Homo sapiens, UniProt P00533, L858R/T790M); assay: Mutant EGFR T790M/L858R activity inhibition assay (Caliper mobility shift); type: biochemical; conditions: read-out: enzyme activity inhibition (IC50) EGFR T790M/L858R
T1 construct: purchased Invitrogen PR8911A
T1 sequence (P00533 25-1210 T790M/L858R): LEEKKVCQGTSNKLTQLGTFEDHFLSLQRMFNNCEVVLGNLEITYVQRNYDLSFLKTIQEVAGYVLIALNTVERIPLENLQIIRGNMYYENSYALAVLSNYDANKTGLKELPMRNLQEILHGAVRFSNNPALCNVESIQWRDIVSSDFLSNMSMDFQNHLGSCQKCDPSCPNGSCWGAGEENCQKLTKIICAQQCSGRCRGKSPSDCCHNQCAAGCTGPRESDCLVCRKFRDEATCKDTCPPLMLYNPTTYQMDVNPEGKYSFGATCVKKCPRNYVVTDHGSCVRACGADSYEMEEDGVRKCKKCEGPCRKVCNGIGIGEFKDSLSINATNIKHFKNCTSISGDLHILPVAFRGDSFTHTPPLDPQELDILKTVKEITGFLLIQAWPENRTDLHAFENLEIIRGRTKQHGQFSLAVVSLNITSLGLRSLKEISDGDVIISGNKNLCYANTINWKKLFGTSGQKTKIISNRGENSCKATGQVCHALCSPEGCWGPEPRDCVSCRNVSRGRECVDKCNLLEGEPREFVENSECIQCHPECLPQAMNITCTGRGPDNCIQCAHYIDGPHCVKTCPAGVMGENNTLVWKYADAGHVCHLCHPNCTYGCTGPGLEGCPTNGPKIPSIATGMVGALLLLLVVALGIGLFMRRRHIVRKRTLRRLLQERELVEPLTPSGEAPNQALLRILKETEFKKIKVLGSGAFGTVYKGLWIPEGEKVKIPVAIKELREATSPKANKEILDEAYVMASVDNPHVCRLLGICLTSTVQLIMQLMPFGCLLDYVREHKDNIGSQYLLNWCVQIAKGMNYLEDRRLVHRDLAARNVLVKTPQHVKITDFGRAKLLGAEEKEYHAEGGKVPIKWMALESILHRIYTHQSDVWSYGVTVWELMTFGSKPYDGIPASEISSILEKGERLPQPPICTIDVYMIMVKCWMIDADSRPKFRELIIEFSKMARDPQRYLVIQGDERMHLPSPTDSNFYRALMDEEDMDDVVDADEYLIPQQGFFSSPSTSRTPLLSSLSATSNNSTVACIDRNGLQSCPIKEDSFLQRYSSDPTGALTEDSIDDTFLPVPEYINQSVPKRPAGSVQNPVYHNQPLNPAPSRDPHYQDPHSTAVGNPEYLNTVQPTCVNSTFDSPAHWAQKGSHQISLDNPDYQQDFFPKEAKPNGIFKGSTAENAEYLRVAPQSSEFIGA
Method in brief: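 Compound added in 10% DMSO at 5-fold final concentration; substrate conversion read by Caliper mobility shift. Inhibition = (max−conversion)/(max−min)×100, with max from DMSO no-compound wells and min from no-enzyme wells; IC50 from fitted concentration–response curve.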

[2] = Pharmacokinetics in rats after oral administration; type: in vivo, SD rats; conditions: for AUC(0-inf) / Cmax / Tmax / half-life / AUC(0-t): male, SD, rat, 20 mg/kg, plasma; for AUC(0-t): read-out: AUC0-24
Experimental: (§6) Male SD rats weighing 250-300 g, or male beagles weighing 9-10 kg, were fasted overnight before the experiment. The object compounds were dissolved in 30% sulfobutylated beta-cyclodextrin (SBE-β-CD), and orally administrated to the rats at a dose of 20 mg/kg or to the beagles at a dose of 5 mg/kg. Blood samples were taken at 15 minutes, 30 minutes, 1 hour, 2 hours, 3 hours, 4 hours, 6 hours, 8 hours and 24 hours after administration. 0.3 ml of blood was collected at every time point, placed in a centrifuge tube containing K2-EDTA (ethylenediamine tetraacetic acid dipotassium) and centrifuged (2,000 g, 10 minutes, 4° C.) to collect plasma, which was then stored in an ultra cold storage freezer at −80° C. 50 μL of plasma sample was mixed with 5 μL of internal standard (IS), and then extracted with ethyl acetate. After vacuum drying, the residue was re-dissolved in acetonitrile. The sample was filtered and injected into LC-MS/MS for analysis.

H1975 xenograft tumor [3] = assay: Potency assay of tumor model, 16 consecutive days; type: in vivo, Balb/C nude mice; conditions: oral; for inhibition of growth of H1975 xenograft tumor (in words): 30 mg/kg qd, 16 days
Experimental: as §5
This experiment studied the inhibition of tumor growth in H1975 xenograft tumor model by the compounds 20, 50, 91, and 118. When the mean volume of H1975 tumor reached about 260 mm^3, the animals were divided into 5 oral administration groups, that is, excipient control group and groups of oral administration of compound 20, compound 50, compound 91, and compound 118, respectively (n=8/group). These compounds were dissolved in 30% sulfobutylated beta-cyclodextrin (SBE-β-CD) and 1N HCl (pH 3-4). […]

[4] = Pharmacokinetics in beagles after oral administration; type: in vivo; conditions: male, beagle, dog, 5 mg/kg, plasma
Experimental: as §6

IC50 (H1975) | IC50 (HCC827) | IC50 (LOVO) | IC50 (H358) | IC50 (EGFR T790M/L858R) | melting point | SMILES | inhibition of growth of H1975 xenograft tumor (in words) (H1975 xenograft tumor [3]) | also measured
< 10 nM | < 10 nM | > 1000 nM | 100 to 1000 nM | < 1 nM | 67 to 68 °C | C=CC(=O)Nc1cc(Nc2nccc(-n3ccc4cc(CO)ccc43)n2)c(OC)cc1N(C)CCN(C)C [Compound 39, N-(2-((2-(dimethylamino)ethyl)(methyl)amino)-5-((4-(5-(hydroxymethyl)-1H-indol-1-yl)pyrimidin-2-yl)amino)-4-methoxyphenyl)acrylamide] |  | 
< 10 nM |  |  | 100 to 1000 nM | < 1 nM |  | C=CC(=O)Nc1cc(Nc2nccc(-n3ccc4nc(OC)ccc43)n2)c(OC)cc1N(C)CCN(C)C [Compound 20, N-(2-((2-(dimethylamino)ethyl)(methyl)amino)-4-methoxy-5-((4-(5-methoxy-1H-pyrrolo[3,2-b]pyridin-1-yl)pyrimidin-2-yl)amino)phenyl)acrylamide] | tumor regression | absorption / blood exposure after oral administration (in words) [2]: well absorbed, with high blood exposure; AUC(0-inf) [2]: 1450 ng·h/mL; Cmax [2]: 350 ng/mL; Tmax [2]: 1.67 h; half-life [2]: 3.7 h; AUC(0-t) [2]: 1440 ng·h/mL
10 to 50 nM |  | > 1000 nM | > 1000 nM | 1 to 10 nM | 161 to 162 °C | C=CC(=O)Nc1cc(Nc2nccc(-n3ccc4ccccc43)n2)c(OC)cc1N1CC[C@H](N(C)C)C1 [Compound 78, (S)—N-(5-((4-(1H-indol-1-yl)pyrimidin-2-yl)amino)-2-(3-(dimethylamino)pyrrolidin-1-yl)-4-methoxyphenyl)acrylamide] |  | 
< 10 nM |  | > 1000 nM | 100 to 1000 nM | < 1 nM | 70 to 71 °C | C=CC(=O)Nc1cc(Nc2nccc(-n3c(=O)n(C)c4cc(Cl)ccc43)n2)c(OC)cc1N(C)CCN(C)C [Compound 51, N-(5-(4-(5-chloro-3-methyl-2-oxo-2,3-dihydro-1H-benzo[d]imidazol-1-yl)pyrimidin-2-ylamino)-2-((2-(dimethylamino)ethyl)(methyl)amino)-4-methoxyphenyl)acrylamide] |  | 

The remaining lines, values behind:

SMILES | IC50 (H1975) | IC50 (HCC827) | IC50 (LOVO) | IC50 (H358) | IC50 (EGFR T790M/L858R) | melting point | inhibition of growth of H1975 xenograft tumor (in words) (H1975 xenograft tumor [3]) | also measured
C=CC(=O)Nc1cc(Nc2nccc(-c3cn(C)c4ccccc34)n2)c(OC)cc1N(C)CCN(C)C [AZD9291, Osimertinib, reference compound] | < 10 nM | < 10 nM | > 1000 nM | 100 to 1000 nM |  |  |  | Tumor inhibition T/C value (%) (H1975 xenograft tumor [1]; 25 mg/kg, 22 consecutive days): −100%; Weight change (%) (H1975 xenograft tumor [1]; 25 mg/kg, 22 consecutive days): −7.2%
C=CC(=O)Nc1cc(Nc2nccc(-n3c(=O)n(C)c4cc(F)ccc43)n2)c(OC)cc1N(C)CCN(C)C [Compound 50, N-(2-((2-(dimethylamino)ethyl)(methyl)amino)-5-((4-(5-fluoro-3-methyl-2-oxo-2,3-dihydro-1H-benzo[d]imidazol-1-yl)pyrimidin-2-yl)amino)-4-methoxyphenyl)acrylamide] | < 10 nM |  |  | 100 to 1000 nM | < 1 nM | 208 to 210 °C | tumor regression | absorption / blood exposure after oral administration (in words) [2]: well absorbed, with high blood exposure; AUC(0-inf) [2]: 598 ng·h/mL; Cmax [2]: 173 ng/mL; Tmax [2]: 1 h; half-life [2]: 3.1 h; AUC(0-t) [2]: 561 ng·h/mL; AUC(0-inf) [4]: 1470 ng·h/mL; Cmax [4]: 428 ng/mL; Tmax [4]: 1 h; half-life [4]: 1.45 h; AUC(0-t) ([4]; read-out: AUC0-24): 1420 ng·h/mL; T/C value (H1975 xenograft tumor [3]; 30 mg/kg qd as printed, 16 days after administration): −97%; Tumor inhibition T/C value (%) (H1975 xenograft tumor [1]; 10 mg/kg, 22 consecutive days): −65%; Weight change (%) (H1975 xenograft tumor [1]; 10 mg/kg, 22 consecutive days): 0.0%; Tumor inhibition T/C value (%) (H1975 xenograft tumor [1]; 20 mg/kg, 22 consecutive days): −95%; Weight change (%) (H1975 xenograft tumor [1]; 20 mg/kg, 22 consecutive days): −2.0%; Tumor inhibition T/C value (%) (H1975 xenograft tumor [1]; 40 mg/kg, 22 consecutive days): −100%; Weight change (%) (H1975 xenograft tumor [1]; 40 mg/kg, 22 consecutive days): −4.4%; tumor outcome (in words) (H1975 xenograft tumor [1]; high dose (40 mg/kg), 22 consecutive days): the tumor disappeared completely; dose dependence of inhibition of H1975 xenograft tumor growth (in words) (H1975 xenograft tumor [1]; oral, 10, 20 and 40 mg/kg): dose dependently inhibited
C=CC(=O)Nc1cc(Nc2nccc(-n3ccc4ccccc43)n2)c(OC)cc1N1CC[C@@H](N(C)C)C1 [Compound 79, (R)—N-(5-((4-(1H-indol-1-yl)pyrimidin-2-yl)amino)-2-(3-(dimethylamino)pyrrolidin-1-yl)-4-methoxyphenyl)acrylamide] | 50 to 100 nM |  | > 1000 nM | > 1000 nM | < 1 nM | 161 to 162 °C |  | 
C=CC(=O)Nc1cccc(Nc2nc(Nc3ccc(N4CCN(C(C)=O)CC4)cc3OC)ncc2C(F)(F)F)c1 [CO-1686, Rociletinib, reference compound] | 10 to 50 nM | 100 to 1000 nM | > 1000 nM | 100 to 1000 nM |  |  |  | 
C=CC(=O)Nc1cc(Nc2nccc(-n3c(=O)n(C)c4ccccc43)n2)c(C)cc1N(C)CCN(C)C [Compound 118, N-(2-((2-(dimethylamino)ethyl) (methyl)amino)-4-methyl-5-((4-(3-methyl-2-oxo-2,3-dihydro-1H-benzo[d]imidazol-1-yl)pyrimidin-2-yl)amino)phenyl)acrylamide] | < 10 nM |  |  | 100 to 1000 nM | < 1 nM | 208 to 210 °C | tumor regression | 
